From PubChem BioAssay (NCI) come the findings set out here.

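A five-concentration, 48-hour dose response in 96-well plates underlies each endpoint, interpolated linearly between surrounding concentrations. At the GI50, growth is halved. TGI: concentration producing complete growth inhibition.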 Activity calls are given as the source filed them. Cut-off read from the data, not from the text of the source: active = GI50 below about 0.43 µM; inactive = the rest.

Holding throughout (assay): DTP human tumour cell line panel, 48 h
For assay [1], the system named is K-562 leukemia.
The subject of assay [2] is NCI-H226 lung.
In assay [3] the test system is HOP-62 NSCLC.
For assay [4], the system named is HOP-92 NSCLC.
Assay [5] concerns A549 NSCLC.
For assay [6], the system named is LOX IMVI melanoma.
Assay [7] concerns HL-60(TB) leukemia.
The test system of assay [8] is UACC-257 melanoma.

For orientation: GI50 means the concentration giving 50% growth inhibition. What is called TGI is the concentration giving total growth inhibition. Low readings indicate greater sensitivity of the cells, high ones lower sensitivity of the cells. Regarding `COc1ccc(C(=O)C#Cc2cnc(OC)nc2OC)cc1`, the GI50 was 12100 µM in assay [1]; 16900 µM in assay [2]; 19700 µM in assay [4]; 9800 µM in assay [6]; 22100 µM in assay [7]; 40800 µM in assay [8]. Moreover, the values for the total growth inhibition concentration (TGI) in assay [3], in assay [5] and in assay [8] were 30.7 µM, 15.7 µM and 5.63 µM, respectively. Further, the result in assay [3] and in assay [5] was inactive.
For `CCOC(=O)/C(=C\c1ccccc1)C(=O)O`, the TGI in assay [1], in assay [2], in assay [3], in assay [4], in assay [5] and in assay [6] was above 100 µM in each case. Also, the TGI in assay [7] and in assay [8] was above 100 µM throughout.
Regarding `O=C(O)COCC(=O)N(CCOCCN(Cc1ccccc1)C(=O)COCC(=O)O)Cc1ccccc1`, the TGI in assay [1], in assay [2], in assay [3], in assay [4], in assay [5] and in assay [6] was above 100 µM in each case. The total growth inhibition concentration (TGI) in assay [7] and in assay [8] was above 100 µM throughout.
Turning to `O=C(CCc1cc(-c2ccccc2)nc(=S)[nH]1)N(Cc1ccccc1)Cc1ccccc1`, the TGI in assay [1], in assay [2], in assay [3], in assay [4], in assay [5] and in assay [6] was above 100 µM throughout. The TGI in assay [7] and in assay [8] was above 100 µM throughout.
On to `CC1OC(OC2C(OC(=O)[C@]34CCC(C)(C)CC3C3=CCC5[C@@]6(C)C[C@H](O)[C@H](OC7OC(CO)C(O)C(O)C7N)[C@@](C)(C(=O)O)C6CC[C@@]5(C)C3(C)CC4)OCC(O)C2O)C(O)C(O)C1OC1OCC(O)C(O)C1O` (some centres undefined), for which the TGI in assay [1], in assay [2], in assay [3], in assay [4], in assay [5] and in assay [6] was above 100 µM in each case. Further, the concentration for total growth inhibition (TGI) in assay [7] and in assay [8] was above 100 µM in each case.
Consider `N#CSC1CCCCNC1=O` (centres undefined), for which the TGI in assay [1] was 62.3 µM; in assay [2] it was 25.7 µM; in assay [3], 41.8 µM; in assay [4] it was 20.9 µM; in assay [5] it was 60 µM; in assay [6], above 100 µM. In addition, the TGI in assay [7] came to 87.4 µM; in assay [8] it was 34.6 µM.
In the case of `O=C1NC(=O)C(CCC(=O)c2ccc3ccccc3c2)C(=O)N1`, the concentration for total growth inhibition (TGI) in assay [1], in assay [2], in assay [3], in assay [4], in assay [5] and in assay [6] was above 100 µM throughout. In addition, the TGI in assay [7] and in assay [8] was above 100 µM each time.
In the case of `COc1ccc(-c2nc(-c3nc4ccc(Cl)cc4[nH]3)c3ccccn23)cc1`, the GI50 in assay [1] was 5.4 µM; in assay [2] it was 1.94 µM; in assay [3] it was 1.96 µM; in assay [4], 2.19 µM; in assay [5], 1.82 µM; in assay [6], 2.85 µM. The GI50 in assay [7] was 49.8 µM; in assay [8], 2.63 µM. The concentration for total growth inhibition (TGI) was 80.1 µM in assay [1]; 4.46 µM in assay [2]; 3.76 µM in assay [3]; 6.09 µM in assay [4]; 4.27 µM in assay [5]; 6.66 µM in assay [6]. Further, the TGI in assay [7] is above 100 µM; in assay [8], 8.5 µM.
`COC(=O)Nc1nc2ccc(Oc3ccc(NC(=O)Nc4cc(C(F)(F)F)ccc4F)cc3)cc2s1`: the GI50 was 0.0202 µM in assay [1]; above 25 µM in assay [2]; 16.7 µM in assay [3]; 0.288 µM in assay [4]; 15 µM in assay [5]; 3.65 µM in assay [6]. Besides, the GI50 was above 13.5 µM in assay [7] and above 25 µM in assay [8]. Also, the TGI in assay [1], in assay [2], in assay [3], in assay [4], in assay [5] and in assay [6] was above 25 µM each time. For the same compound, the TGI in assay [7] and in assay [8] was above 25 µM each time.
`Nc1nc(N(Cc2ccccc2)c2ccccc2)c2cn[nH]c2n1`: the GI50 in assay [1] is 2.49 µM; in assay [2], 6.35 µM; in assay [3], 3.47 µM; in assay [4], 1.42 µM; in assay [5], 5.47 µM; in assay [6], 3.91 µM. The values for the GI50 in assay [7] and in assay [8] were 1.57 µM and 9.84 µM, respectively. Moreover, the TGI in assay [1], in assay [2], in assay [3], in assay [4], in assay [5] and in assay [6] was above 100 µM throughout. The TGI was 6.6 µM in assay [7] and above 100 µM in assay [8].
As to `Cc1cc(-c2cnn3c(NCC4CC(C)(O)C4)cc(Oc4cccnc4)nc23)ccc1C(=O)NC1CC1` (centres undefined), the GI50 in assay [1] was above 100 µM; in assay [2], above 100 µM; in assay [3], 8.57 µM; in assay [4], 6.42 µM; in assay [5], 3.49 µM; in assay [6] it was 0.395 µM. In addition, the GI50 in assay [7] was 1.25 µM; in assay [8], above 100 µM. The TGI in assay [1], in assay [2], in assay [3], in assay [4], in assay [5] and in assay [6] was above 100 µM throughout. Also, the concentration for total growth inhibition (TGI) in assay [7] and in assay [8] was above 100 µM throughout.
Turning to `Nc1nc2c(nnn2C2CC(O)C(CO)O2)c(=O)[nH]1` (centres undefined), the GI50 in assay [1] is 4.04 µM; in assay [2], 8.75 µM; in assay [3], 7.91 µM; in assay [4], 1.62 µM; in assay [5] it was 20.3 µM; in assay [6], 0.92 µM. For the same compound, the values for the GI50 in assay [7] and in assay [8] were 1.15 µM and above 48.9 µM, respectively. In addition, the total growth inhibition concentration (TGI) in assay [1] was above 100 µM; in assay [2] it was above 100 µM; in assay [3], above 93.9 µM; in assay [4], 51.1 µM; in assay [5], above 100 µM; in assay [6], above 83.2 µM. Further, the results for the TGI in assay [7] and in assay [8] were above 38.1 µM and above 100 µM, respectively.
